Source: patent US20140073631A1 (priority 2012, published 2014)
Converted amounts (≈) assume the structure as drawn. Read-outs that look alike come from different tables or passages of the source.

Key:
[1] = tested on: Flu A H1N1 New Caledonia/20/99; test: Anti-influenza testing, visual and NR assays; format: cell-based, influenza A H1N1; conditions: for activity by visual and NR assays: Flu A H1N1
[2] = tested on: Flu A H3N2 California/7/04; test: Anti-influenza testing, visual and NR assays; format: cell-based, influenza A H3N2; conditions: for EC50: H3N2, MDCK; for activity by visual and NR assays: Flu A H3N2
MDCK = test: Anti-influenza testing, IC50 in MDCK cell line (cell-inhibitory concentration used for SI); format: cell-based; conditions: Canis lupus familiaris
H37Rv Colorado strain [3] = test: TB MIC Testing (Table 9); format: cell-based; conditions: Mycobacterium tuberculosis, read-out: MIC Value, Standard Test Strain H27Rv
H37Rv Colorado strain [4] = test: MBC Determination with H37Rv Colorado strain (Table 9); format: cell-based; conditions: Mycobacterium tuberculosis; Performed with H37Rv
TB = test: DMID TB MIC Results (Table 10); format: cell-based; conditions: Mycobacterium tuberculosis; solvent DMSO
Y. pestis C092 = format: in vivo, BALB/c mice; conditions: 21 days
F. tularensis SCHU S4 = tested on: F. tularensis SCHU S4; parameters: species or system BALB/c mice; conditions: mouse, in vivo
Burkholderia mallei = test: microbe, parasite or virus in culture; format: cell-based
Plasmodium falciparum = test: Anti-malaria testing; format: cell-based
[5] = tested on: Burkholderia pseudomallei; test: microbe, parasite or virus in culture; format: cell-based

O=C1C2C=CC=C([N+](=O)[O-])C2(C(=O)O)C(c2ccccc2)N1c1ccc(O)cc1 (centres unmarked) [BVS-45]
EC90 ([1]; Influenza A virus, Virus Yield assay, Flu A (H1N1) New Caledonia/20/99, MDCK, vehicle DMSO, trial 2): > 100 µg/mL
EC50 ([1]; Influenza A virus, Visual-CONF assay, Flu A (H1N1) New Caledonia/20/99, MDCK, vehicle DMSO, trial 2, read-out: EC50): 0.18 µg/mL (≈ 0.459 µM)
EC50 ([2]; Influenza A virus, Neutral Red assay, Flu A (H3N2) California/7/04, MDCK, vehicle DMSO, trial 1): 0.22 µg/mL (≈ 0.561 µM)
EC50 ([2]; Influenza A virus, Visual assay, Flu A (H3N2) California/7/04, MDCK, vehicle DMSO, trial 1): 0.056 µg/mL (≈ 0.143 µM)
EC50 ([2]; Influenza A virus, Visual-CONF assay, Flu A (H3N2) California/7/04, MDCK, vehicle DMSO, trial 2): 0.056 µg/mL (≈ 0.143 µM)
EC90 ([2]; Influenza A virus, Virus Yield assay, Flu A (H3N2) California/7/04, MDCK, vehicle DMSO, trial 2): 0.15 µg/mL (≈ 0.382 µM)
IC50 (MDCK; Neutral Red assay, test with Flu A (H3N2) California/7/04, trial 1, read-out: IC50): 75 µg/mL (≈ 191 µM)
IC50 (MDCK; Visual assay, test with Flu A (H1N1) New Caledonia/20/99, trial 1): > 100 µg/mL
IC50 (MDCK; Visual assay, test with Flu A (H3N2) California/7/04, trial 1, read-out: IC50): > 100 µg/mL
IC50 (MDCK; Visual-CONF assay, test with Flu A (H1N1) New Caledonia/20/99, trial 2, read-out: IC50): > 100 µg/mL
IC50 (MDCK; Visual-CONF assay, test with Flu A (H3N2) California/7/04, trial 2, read-out: IC50): > 100 µg/mL

O=C1C2C=CC=C([N+](=O)[O-])C2(C(=O)O)C(c2ccccc2)N1c1ccc(O)cc1 (centres unmarked) [BVS-45A (I)]
activity by visual and NR assays [1]: highly active
activity by visual and NR assays [2]: highly active

NNC(=O)c1ccncc1 [Isoniazid, isoniazid, reference compound]
MIC (H37Rv Colorado strain [3]): 0.031 µg/mL (≈ 0.226 µM)
MBC (H37Rv Colorado strain [4]): 0.031 µg/mL (≈ 0.226 µM)
MIC (TB): 0.06 µg/mL (≈ 0.438 µM)

C[C@H]1COc2c(N3CCN(C)CC3)c(F)cc3c(=O)c(C(=O)O)cn1c23 [Levofloxacin, reference compound]
survival (Y. pestis C092): 88.9%
survival (F. tularensis SCHU S4): 100%

CC[C@H]1OC(=O)[C@H](C)[C@@H](O[C@H]2C[C@@](C)(OC)[C@@H](O)[C@H](C)O2)[C@H](C)[C@@H](O[C@@H]2O[C@H](C)C[C@H](N(C)C)[C@H]2O)[C@](C)(O)C[C@@H](C)CN(C)[C@H](C)[C@@H](O)[C@]1(C)O [Azithromycin, azithromycin, reference compound]
MIC Range (Burkholderia mallei): 0.0625 to 1 µg/mL
MIC50 (Burkholderia mallei; Burkholderia mallei): 0.5 µg/mL (≈ 0.668 µM)
MIC90 (Burkholderia mallei; Burkholderia mallei, read-out: MIC90): 1 µg/mL (≈ 1.34 µM)

N#CNC(=N)NC1C2CC3CCC1(NC(=N)NC#N)CC3C2 (centres unmarked) [BVS-47A (XX)]
IC50 (Plasmodium falciparum; average of Test 1 and Test 2, read-out: Average IC50): > 10 µM
IC50 (Plasmodium falciparum; read-out: IC50 Test 1): > 10 µM
IC50 (Plasmodium falciparum; read-out: IC50 Test 2): > 10 µM
activity by visual and NR assays [1]: highly active
activity by visual and NR assays [2]: highly active

CC(C)(O/N=C(\C(=O)N[C@@H]1C(=O)N2C(C(=O)[O-])=C(C[n+]3ccccc3)CS[C@H]12)c1csc(N)n1)C(=O)O [Ceftazidime, ceftazidime, reference compound]
MIC Range [5]: 0.5 to 32 µg/mL
MIC50 ([5]; Burkholderia pseudomallei): 2 µg/mL (≈ 3.66 µM)
MIC90 ([5]; Burkholderia pseudomallei): 4 µg/mL (≈ 7.32 µM)
